From PMC10866072, “Design, synthesis, molecular modelling and biological evaluation of novel 6-amino-5-cyano-2-thiopyrimidine derivatives as potent anticancer agents against leukemia and apoptotic inducers” (Journal of Enzyme Inhibition and Medicinal Chemistry, 2024)
Where two headings read alike, the source gives them in different places.

Legend:
[1] = tested on: OVCAR-5; type: cell-based
[2] = tested on: MALME-3M; type: cell-based
[3] = tested on: HT29; type: cell-based
[4] = tested on: SN12C; type: cell-based, human; conditions: Homo sapiens, one dose 10^-5 M, 48 h
[5] = tested on: MDA-MB-435; type: cell-based
[6] = tested on: OVCAR-8; type: cell-based
[7] = tested on: BT-549; type: cell-based
[8] = tested on: SF-539; type: cell-based
[9] = tested on: T-47D; type: cell-based
[10] = tested on: NCI-H522; type: cell-based
[11] = tested on: LOX IMVI; type: cell-based
[12] = tested on: leukaemia SR cells; assay: Annexin V-FITC/PI apoptosis and necrosis assay; type: cell-based, human; conditions: 48 h treatment
Procedure: (§1) For more assessment of compound 1c, apoptosis assay was performed using annexin V-FITC Apoptosis detection kit (Biovision, cat#: K101-25) followed by flow cytometric analysis[92]^,[93]. Briefly, HL60 and leukaemia SR cells were cultured under optimum conditions followed by compound I c treatment for 48 h. then, washed in PBS, centrifuged, and resuspended in 500 µl of 1 x binding buffer. Moreover, 5 µl of annexin V-FITC, and 5 µl of propidium iodide were added and incubated in dark for 5 min. Finally, apoptotic cells were detected using flow cytometer as well as PI staining by emission signal detector. FACS Calibur flow cytometer (Becton Dickinson Biosciences) was used to analyse the cells’ apoptosis.

[13] = tested on: HL60 cells; assay: Annexin V-FITC/PI apoptosis and necrosis assay; type: cell-based, human; conditions: HL60, 48 h treatment
Procedure: as §1

[14] = tested on: SK-MEL-28; type: cell-based
[15] = tested on: Colon cancer cell lines; assay: NCI-60 five-dose, subpanel
Text: (§2) Furthermore, the average sensitivity of all cell lines to the compound is termed as the full panel mean graph midpoints (MG-MID). The complete panel mean graph midpoints refers to the average sensitivity of all cell lines to the chemical (MG-MID). A measure of a compound’s selectivity for a given cell line is the ratio created by dividing the full panel mean graph midpoints (MG-MID) concentration by the individual subpanel MG-MID concentrations (obtained as the average sensitivity of all the cell lines in a given subpanel to the test compound).
(§3) Assessment of selectivity of a compound depends on the ratio obtained by dividing the full panel MID ^a by their individual subpanel MID ^b (µM) where MID^a is the average sensitivity of all cell lines towards the test agent (µM).

[16] = tested on: leukaemia cell lines; assay: NCI-60 five-dose, subpanel
Text: as §2, §3

[17] = tested on: Non-small cell lung cancer cell lines; assay: NCI-60 five-dose, subpanel
Text: as §2, §3

[18] = tested on: TK-10; type: cell-based
[19] = tested on: HCC-2998; type: cell-based
[20] = tested on: UACC-62; type: cell-based
[21] = tested on: RXF 393; type: cell-based; conditions: five-dose
[22] = MTT cytotoxicity on normal cells; type: cell-based; conditions: human, WI-38 cells (normal lung fibroblasts), WI-38 normal cells, mean ± SD of three experiments, read-out: IC50 (cytotoxic activity)
Procedure: The American Type Culture Collection provided WI-38 cells (normal lung cells). The cells were grown in DMEM with 10% heat-inactivated FBS (Hyclone), 10 µg/ml of insulin (Sigma), and 1% penicillin-streptomycin. The remaining chemicals and reagents were all from Sigma or Invitrogen. The MTT test was used to evaluate cytotoxicity, as described previously. Graph pad Prism software (San Diego, CA) was used to estimate the 50% inhibitory concentration (IC50) from dose response curve graphic plots for each conc.

[23] = tested on: COLO 205; type: cell-based
[24] = tested on: SR; type: cell-based
[25] = tested on: Renal cancer cell lines; assay: NCI-60 five-dose, subpanel
Text: A measure of a compound’s selectivity for a given cell line is the ratio created by dividing the full panel mean graph midpoints (MG-MID) concentration by the individual subpanel MG-MID concentrations (obtained as the average sensitivity of all the cell lines in a given subpanel to the test compound).
as §3

[26] = tested on: OVCAR-3; type: cell-based
[27] = Homo sapiens, five-dose, read-out: LC50 (the source's name)
[28] = Homo sapiens, one dose 10^-5 M, 48 h
[29] = Homo sapiens, one dose 10^-5 M, 48 h, read-out: % growth
[30] = Homo sapiens, read-out: GI50 Subpanel MID^b

N#Cc1c(N)nc(S)nc1-c1ccc(Cl)cc1Cl [Compound 1c, 4-Amino-6–(2,4-dichlorophenyl)-2-mercaptopyrimidine-5-carbonitrile]
GI50 ([1]; Homo sapiens, five-dose): 16.4 µM
CC50 [1, 27]: 63.2 µM
percent cell growth at 10 µM [1, 28]: 93.5%
TGI ([1]; five-dose): 32.20 µM
GI50 ([2]; Homo sapiens, five-dose): 15.3 µM
CC50 [2, 27]: 69.7 µM
% growth at 10 µM [2, 28]: 4.96%
TGI ([2]; five-dose): 32.70 µM
GI50 ([3]; Homo sapiens, HT-29, five-dose): 13.8 µM
CC50 ([3]; Homo sapiens, HT-29, five-dose, read-out: LC50 (the source's name)): 68.9 µM
% growth at 10 µM ([3]; Homo sapiens, HT-29, one dose 10^-5 M, 48 h): 24.7%
TGI ([3]; five-dose): 30.80 µM
% growth at 10 µM [4]: 62.1%
GI50 ([5]; Homo sapiens, five-dose): 10.5 µM
CC50 [5, 27]: > 100 µM
activity at 10 µM [5, 29]: 25.3%
TGI ([5]; five-dose): 38.00 µM
GI50 ([6]; Homo sapiens, five-dose): 21.8 µM
CC50 [6, 27]: > 100 µM
% growth of cells at 10 µM [6, 28]: 5.74%
TGI ([6]; five-dose): 74.70 µM
GI50 ([7]; Homo sapiens, five-dose): 14.9 µM
CC50 [7, 27]: 62.7 µM
% cell growth at 10 µM [7, 28]: 42.1%
TGI ([7]; five-dose): 30.50 µM
GI50 ([8]; Homo sapiens, five-dose): 10.8 µM
CC50 [8, 27]: 52.4 µM
% growth at 10 µM [8, 28]: 39.9%
TGI ([8]; five-dose): 23.80 µM
GI50 ([9]; Homo sapiens, T47D, five-dose): 9.87 µM
CC50 ([9]; Homo sapiens, T47D, five-dose, read-out: LC50 (the source's name)): > 100 µM
activity at 10 µM ([9]; Homo sapiens, T47D, one dose 10^-5 M, 48 h, read-out: % growth): 54.5%
TGI ([9]; five-dose): 32.30 µM
GI50 ([10]; Homo sapiens, five-dose): 15.4 µM
CC50 [10, 27]: 61.3 µM
% growth at 10 µM [10, 28]: 49.4%
TGI ([10]; five-dose): 30.70 µM
GI50 ([11]; Homo sapiens, five-dose): 1.1 µM
CC50 [11, 27]: 40 µM
activity at 10 µM [11, 29]: -49.2%
TGI ([11]; five-dose): 15.10 µM
% growth ([11]; one dose 10^-5 M, 48 h): -49.21%
early apoptosis [12]: 14.97%
late apoptosis [12]: 23.02%
necrosis percentage [12]: 4.72%
early apoptosis [13]: 23.79%
late apoptosis [13]: 9.89%
necrosis percentage [13]: 3.41%
GI50 ([14]; Homo sapiens, five-dose): 15.2 µM
CC50 [14, 27]: 60.7 µM
% cell growth at 10 µM [14, 28]: 57.7%
TGI ([14]; five-dose): 30.40 µM
GI50 [15, 30]: 10.9 µM
Selectivity ratio (full panel MID^a / subpanel MID^b, GI50 level) ([15]; colon cancer): 1.2
GI50 [16, 30]: 0.33 µM
GI50 ([16]; Homo sapiens, read-out: GI50 range, leukaemia cell lines): 0.08 to 0.7 µM
CC50 ([16]; Homo sapiens, read-out: LC50, leukaemia): > 100 µM
Selectivity ratio (full panel MID^a / subpanel MID^b, GI50 level) ([16]; leukaemia): 39
GI50 [17, 30]: 18.1 µM
Selectivity ratio (full panel MID^a / subpanel MID^b, GI50 level) ([17]; non-small cell lung cancer): 0.7
GI50 ([18]; Homo sapiens, five-dose): 21.5 µM
LC50 (50% lethal concentration) ([18]; Homo sapiens, five-dose): > 100 µM
% cell growth at 10 µM [18, 28]: 114%
TGI ([18]; five-dose): 50.20 µM
GI50 ([19]; Homo sapiens, five-dose): 13 µM
CC50 [19, 27]: 51.5 µM
% growth at 10 µM [19, 28]: 83.3%
TGI ([19]; five-dose): 25.90 µM
GI50 ([20]; Homo sapiens, five-dose): 13.8 µM
CC50 [20, 27]: 57.6 µM
% growth at 10 µM [20, 28]: 62.7%
TGI ([20]; five-dose): 28.20 µM
GI50 ([21]; Homo sapiens): 12.7 µM
CC50 ([21]; Homo sapiens, read-out: LC50 (the source's name)): 52.2 µM
TGI [21]: 25.70 µM
IC50 [22]: 43.6 ± 1.2 µM
GI50 ([23]; Homo sapiens, five-dose): 19 µM
CC50 [23, 27]: 70 µM
% growth at 10 µM [23, 28]: 80.5%
TGI ([23]; five-dose): 36.50 µM
GI50 ([24]; Homo sapiens, five-dose): 0.14 µM
CC50 [24, 27]: > 100 µM
percent cell growth at 10 µM [24, 28]: 2.54%
TGI ([24]; five-dose): 23.70 µM
GI50 [25, 30]: 14.2 µM
Selectivity ratio (full panel MID^a / subpanel MID^b, GI50 level) ([25]; renal cancer): 0.9
GI50 ([26]; Homo sapiens, five-dose): 18.1 µM
CC50 [26, 27]: > 100 µM
% growth at 10 µM [26, 28]: 17.1%
TGI ([26]; five-dose): 47.60 µM
